Test system: T1, LPAAT (lysophosphatidate acyltransferase, microsomal preparations)
T1 construct: gene LPAT2; native microsomes from 27 DAF embryos; several endogenous ER isoenzymes
Assay: […]-PA formation, TLC; bi-substrate rate equation fit
Type: biochemical
Conditions: 50 mM Tris pH 7.5, 1 mg/ml BSA, 30°C, 10 min, embryo microsomes, line not told

Structure (SMILES) | Km (co-substrate 1-14C-oleoyl-CoA at high concentration) [µM] | Km (co-substrate LPA at high concentration, labelled compound (1-14C-oleoyl-CoA)) [µM]
CCCCCCCC/C=C\CCCCCCCC(=O)OC[C@@H](O)COP(=O)(O)O [LPA] | 15.2 | 
CCCCCCCC/C=C\CCCCCCCC(=O)SCCNC(=O)CCNC(=O)[C@H](O)C(C)(C)COP(=O)(O)OP(=O)(O)OC[C@H]1O[C@@H](n2cnc3c(N)ncnc32)[C@H](O)[C@@H]1OP(=O)(O)O [oleoyl-CoA] |  | 103
